According to ChEMBL document CHEMBL1137316, “Discovery of S-(2-guanidylethyl)-isothiourea (VUF 8430) as a potent nonimidazole histamine H4 receptor agonist” (J Med Chem, 2006):
Active and inactive are the calls of the source. The rule behind the calls is not given here.

Columns and labels:
Histamine H4 receptor = Histamine H4 receptor (Homo sapiens, UniProt Q9H3N8); assay: Displacement of [3H]histamine from human histamine H4 receptor
Histamine H3 receptor [1] = target: T1, Histamine H3 receptor (Homo sapiens, UniProt Q9Y5N1); assay: Agonist activity at human histamine H3 receptor in SK-N-MC cells assessed as inhibition of forskolin-induced cAMP-mediated CRE-beta galactosidase activity; type: functional, cell-based
[2] = target: Histamine H1 receptor (Homo sapiens) (UniProt P35367); assay: Agonist activity at human histamine H1 receptor at 100 uM; type: functional
[3] = target: Histamine H2 receptor (Homo sapiens) (UniProt P25021); assay: Agonist activity at human histamine H2 receptor; type: functional
Histamine H3 receptor [4] = target: T1, Histamine H3 receptor; assay: Displacement of [3H]Nalpha-methylhistamine from human histamine H3 receptor expressed in SK-N-MC cells; type: cell-based
[5] = target: Histamine H2 receptor (Cavia porcellus) (UniProt P47747); assay: Activity at human histamine H2 receptor in guinea pig right atrium; type: functional, tissue-based; settings: Cardiac atrium
Histamine H2 receptor (Cavia porcellus), sequence (P47747 whole entry): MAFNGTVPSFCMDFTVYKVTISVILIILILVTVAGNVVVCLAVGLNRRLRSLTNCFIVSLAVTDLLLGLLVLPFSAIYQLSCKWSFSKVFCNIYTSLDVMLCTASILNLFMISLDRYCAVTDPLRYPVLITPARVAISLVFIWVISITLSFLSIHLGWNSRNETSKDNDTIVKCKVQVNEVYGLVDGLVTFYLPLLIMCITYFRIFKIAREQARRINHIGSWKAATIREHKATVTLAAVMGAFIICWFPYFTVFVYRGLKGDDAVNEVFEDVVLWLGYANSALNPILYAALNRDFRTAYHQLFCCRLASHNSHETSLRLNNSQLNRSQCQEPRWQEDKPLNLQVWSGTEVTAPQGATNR

Histamine H4 receptor, sequence (Q9H3N8 whole entry): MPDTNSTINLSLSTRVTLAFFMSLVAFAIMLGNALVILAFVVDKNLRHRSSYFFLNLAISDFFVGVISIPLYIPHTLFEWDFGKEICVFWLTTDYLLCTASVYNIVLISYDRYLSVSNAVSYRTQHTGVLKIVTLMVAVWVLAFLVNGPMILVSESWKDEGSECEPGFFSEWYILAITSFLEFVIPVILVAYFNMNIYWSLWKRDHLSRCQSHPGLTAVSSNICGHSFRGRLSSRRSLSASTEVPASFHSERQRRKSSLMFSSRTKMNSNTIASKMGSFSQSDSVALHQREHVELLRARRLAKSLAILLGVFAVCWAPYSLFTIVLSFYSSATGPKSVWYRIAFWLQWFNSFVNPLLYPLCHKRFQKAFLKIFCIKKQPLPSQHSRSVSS
T1 sequence (Q9Y5N1 whole entry): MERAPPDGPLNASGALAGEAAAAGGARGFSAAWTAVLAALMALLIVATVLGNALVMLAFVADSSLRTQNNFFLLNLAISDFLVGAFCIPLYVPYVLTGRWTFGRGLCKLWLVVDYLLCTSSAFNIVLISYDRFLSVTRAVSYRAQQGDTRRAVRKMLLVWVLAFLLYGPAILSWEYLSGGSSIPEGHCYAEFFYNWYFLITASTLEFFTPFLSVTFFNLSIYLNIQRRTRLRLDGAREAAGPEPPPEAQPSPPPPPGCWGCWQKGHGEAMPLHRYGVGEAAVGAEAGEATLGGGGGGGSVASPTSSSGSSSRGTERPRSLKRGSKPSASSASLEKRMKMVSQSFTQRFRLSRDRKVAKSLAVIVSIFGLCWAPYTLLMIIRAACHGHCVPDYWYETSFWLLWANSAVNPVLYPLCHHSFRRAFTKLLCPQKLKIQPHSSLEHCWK
Histamine H1 receptor (Homo sapiens), sequence (P35367 whole entry): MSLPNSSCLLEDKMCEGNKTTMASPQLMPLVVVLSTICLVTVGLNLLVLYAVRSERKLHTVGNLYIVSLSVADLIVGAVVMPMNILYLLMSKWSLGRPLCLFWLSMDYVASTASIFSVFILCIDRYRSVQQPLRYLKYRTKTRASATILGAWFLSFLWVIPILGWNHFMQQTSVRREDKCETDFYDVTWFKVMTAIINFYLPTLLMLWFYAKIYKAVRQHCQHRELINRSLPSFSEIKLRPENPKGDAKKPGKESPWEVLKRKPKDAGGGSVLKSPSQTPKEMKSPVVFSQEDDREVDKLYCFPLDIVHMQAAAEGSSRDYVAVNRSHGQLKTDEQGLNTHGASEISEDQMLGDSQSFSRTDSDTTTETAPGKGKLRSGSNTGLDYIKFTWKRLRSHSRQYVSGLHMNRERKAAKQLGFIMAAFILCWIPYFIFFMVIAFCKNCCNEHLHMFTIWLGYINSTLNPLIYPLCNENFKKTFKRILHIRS
Histamine H2 receptor (Homo sapiens), sequence (P25021 whole entry): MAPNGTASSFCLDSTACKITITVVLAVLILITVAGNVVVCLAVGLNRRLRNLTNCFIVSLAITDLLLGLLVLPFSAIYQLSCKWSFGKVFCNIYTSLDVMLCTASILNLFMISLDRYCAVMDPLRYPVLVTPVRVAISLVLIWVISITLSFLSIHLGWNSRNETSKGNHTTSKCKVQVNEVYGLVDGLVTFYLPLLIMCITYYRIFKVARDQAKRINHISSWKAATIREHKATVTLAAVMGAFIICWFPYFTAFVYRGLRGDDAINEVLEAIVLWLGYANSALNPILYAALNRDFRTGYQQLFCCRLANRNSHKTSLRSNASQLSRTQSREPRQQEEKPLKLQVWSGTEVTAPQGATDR

## N=C(N)NCCCCSC(=N)N
Histamine H4 receptor
  Ki: 3.16 µM

## N=C(N)NCCNC(=N)N
Histamine H4 receptor
  Ki: 0.398 µM

## N=C(N)SCCSC(=N)N
Histamine H4 receptor
  Ki: 0.251 µM

## N=C(N)NCCCCCCSC(=N)N
Histamine H4 receptor
  Ki: 3.98 µM

## N=C(N)NCCSC(=N)N
Histamine H3 receptor [1]
  Intrinsic activity: 1
[2]
  Activity: inactive
[3]
  Activity: 50%
Histamine H3 receptor [4]
  Ki: 1 µM
[5]
  Intrinsic activity: 0.4
  pD2: 3.8

## N=C(N)NCCCSC(=N)N
Histamine H4 receptor
  Ki: 7.94 µM
